Source: article PMC7954579 (Cancer chemotherapy and pharmacology, 2020)
“And” between values parts separate entries of the source, which are not always exact repeats. Identical values can stand only once.

Columns and labels:
[1] = twice-weekly schedule, monotherapy; cited from earlier work
[2] = test system: colorectal cancer cell line; assay: In vitro combination study in a colorectal cancer cell line; assay type: cell-based; conditions: Supplementary Fig. 1A
[3] = IV, days 1, 4, 8, 11 of 21-day cycle, with onalespib 80 mg/m^2 (DL2)
[4] = Plasma pharmacokinetics in patients; assay type: in vivo, human; conditions: for half-life: t1/2,z
[5] = test system: CDKs 1,2,4,5, and 9; conditions: read-out: IC50 range; cited from earlier work
[6] = All dose levels, C1D1, AT7519 after onalespib, n = 23, geometric mean
[7] = All dose levels, C1D11, AT7519 after onalespib, n = 15, geometric mean
[8] = DL1, C1D1, AT7519 21 mg/m^2 IV after onalespib 40 mg/m^2, n = 4, geometric mean
[9] = DL1, C1D11, AT7519 21 mg/m^2 IV after onalespib 40 mg/m^2, n = 2, geometric mean
[10] = DL2, C1D1, AT7519 21 mg/m^2 IV after onalespib 80 mg/m^2, n = 15, geometric mean
[11] = DL2, C1D11, AT7519 21 mg/m^2 IV after onalespib 80 mg/m^2, n = 11, geometric mean
[12] = DL3, C1D1, AT7519 27 mg/m^2 IV after onalespib 80 mg/m^2, n = 4, geometric mean
[13] = DL3, C1D11, AT7519 27 mg/m^2 IV after onalespib 80 mg/m^2, n = 2, geometric mean
[14] = human, plasma, iv, DL1, C1D1, AT7519 21 mg/m^2 IV after onalespib 40 mg/m^2, n = 4, geometric mean
[15] = human, plasma, iv, DL1, C1D11, AT7519 21 mg/m^2 IV after onalespib 40 mg/m^2, n = 2, geometric mean
[16] = human, plasma, iv, DL2, C1D1, AT7519 21 mg/m^2 IV after onalespib 80 mg/m^2, n = 15, geometric mean
[17] = human, plasma, iv, DL2, C1D11, AT7519 21 mg/m^2 IV after onalespib 80 mg/m^2, n = 11, geometric mean
[18] = human, plasma, iv, DL3, C1D1, AT7519 27 mg/m^2 IV after onalespib 80 mg/m^2, n = 4, geometric mean
[19] = human, plasma, iv, DL3, C1D11, AT7519 27 mg/m^2 IV after onalespib 80 mg/m^2, n = 2, geometric mean

In the case of O=C(NC1CCNCC1)c1n[nH]cc1NC(=O)c1c(Cl)cccc1Cl [AT7519, N-(4-piperidinyl)-4-(2,6-dichlorobenzoylamino)-1H-pyrazole-3-car-boxamide], the “RP2D as individual agent” value [1] is given as 27 mg/m^2, the “Effect on onalespib-induced HSP70 upregulation” value [2] is given as “dose-dependent inhibition of onalespib-induced HSP70 upregulation” and the “Maximally tolerated dose (MTD) of AT7519 in the combination” value [3] is given as 21 mg/m^2. For the same compound, the CL [4, 6] was 9.97 L/h/m^2, the Vz [4, 6] was 144.3 L/m^2 and the CL [4, 7] was 8.93 L/h/m^2. For the same compound, the Vz [4, 7] was 135.9 L/m^2, the CL [4, 8] was 13.6 L/h/m^2 and the Vz [4, 8] was 146.6 L/m^2. The CL [4, 9] was 9.98 L/h/m^2, the Vz [4, 9] was 155.9 L/m^2 and the CL [4, 10] was 9.1 L/h/m^2 and 9.13 L/h/m^2. For the same compound, the Cmax [4, 10] was 459.3 ng/mL, the Vz [4, 10] was 146.3 L/m^2 and the CL [4, 11] was 8.6 L/h/m^2 and 8.58 L/h/m^2. It also gave a Cmax [4, 11] of 508.7 ng/mL, a Vz [4, 11] of 132.6 L/m^2 and a CL [4, 12] of 10.1 L/h/m^2. For the same compound, the Vz [4, 12] was 134.7 L/m^2, the CL [4, 13] was 10.0 L/h/m^2 and the Vz [4, 13] was 135.5 L/m^2. It also gave an AUC [4, 14] of 1540 ng·h/mL, an AUC [4, 15] of 2100 ng·h/mL and an AUC [4, 16] of 2300 ng·h/mL. For the same compound, the AUC [4, 17] was 2450 ng·h/mL, the AUC [4, 18] was 2660 ng·h/mL and the AUC [4, 19] was 2700 ng·h/mL. It also gave a Cmax ([4]; human, plasma, iv, Cmax, DL1, C1D1, AT7519 21 mg/m^2 IV after onalespib 40 mg/m^2, n = 4, geometric mean) of 463 ng/mL, a Cmax ([4]; human, plasma, iv, Cmax, DL1, C1D11, AT7519 21 mg/m^2 IV after onalespib 40 mg/m^2, n = 2, geometric mean) of 486 ng/mL and a Cmax ([4]; human, plasma, iv, Cmax, DL2, C1D1, AT7519 21 mg/m^2 IV after onalespib 80 mg/m^2, n = 15, geometric mean) of 459 ng/mL. The Cmax ([4]; human, plasma, iv, Cmax, DL2, C1D11, AT7519 21 mg/m^2 IV after onalespib 80 mg/m^2, n = 11, geometric mean) was 509 ng/mL, the Cmax ([4]; human, plasma, iv, Cmax, DL3, C1D1, AT7519 27 mg/m^2 IV after onalespib 80 mg/m^2, n = 4, geometric mean) was 602 ng/mL and the Cmax ([4]; human, plasma, iv, Cmax, DL3, C1D11, AT7519 27 mg/m^2 IV after onalespib 80 mg/m^2, n = 2, geometric mean) was 581 ng/mL. It also gave a half-life [4, 14] of 449 min, a half-life [4, 15] of 648 min and a half-life [4, 16] of 666 min. For the same compound, the half-life [4, 17] was 642 min, the half-life [4, 18] was 553 min and the half-life [4, 19] was 563 min. The IC50 [5] was 11 to 220 nM.
